# Reference: patent publication US11140896B2, “Two components disinfecting composition containing peracetic acid and chelating agent” (ECOLAB USA INC., priority 2014, dated 2021)
# Experiment: Screening of different concentrations of the chelating agent GLDA (peracetic acid concentration over storage)
# Type: physicochemical
structure (smiles),measurement,setting,value
"O=C([O-])CC[C@@H](C(=O)[O-])N(CC(=O)[O-])CC(=O)[O-].[Na+].[Na+].[Na+].[Na+] [GLDA, N,N-bis(carboxymethyl)-L-glutamic acid tetrasodium salt]",peracetic acid concentration of the aqueous disinfectant solution,"0.05 wt.-% GLDA in component (B), day 0, 23° C.",2314 ppm
same,peracetic acid concentration of the aqueous disinfectant solution,"0.05 wt.-% GLDA in component (B), day 1, 23° C.",2220 ppm
same,peracetic acid concentration of the aqueous disinfectant solution,"0.05 wt.-% GLDA in component (B), day 4, 23° C.",1847 ppm
same,peracetic acid concentration of the aqueous disinfectant solution,"0.05 wt.-% GLDA in component (B), day 6, 23° C.",1753 ppm
same,peracetic acid concentration of the aqueous disinfectant solution,"0.05 wt.-% GLDA in component (B), day 7, 23° C.",1653 ppm
same,peracetic acid concentration of the aqueous disinfectant solution,"0.05 wt.-% GLDA in component (B), day 8, 23° C.",1563 ppm
same,peracetic acid concentration of the aqueous disinfectant solution,"0.05 wt.-% GLDA in component (B), day 9, 23° C.",1466 ppm
same,peracetic acid concentration of the aqueous disinfectant solution,"0.05 wt.-% GLDA in component (B), day 15, 23° C.",829 ppm
same,peracetic acid concentration of the aqueous disinfectant solution,"0.1 wt.-% GLDA in component (B), day 0, 23° C.",2346 ppm
same,peracetic acid concentration of the aqueous disinfectant solution,"0.1 wt.-% GLDA in component (B), day 1, 23° C.",2202 ppm
same,peracetic acid concentration of the aqueous disinfectant solution,"0.1 wt.-% GLDA in component (B), day 4, 23° C.",1856 ppm
same,peracetic acid concentration of the aqueous disinfectant solution,"0.1 wt.-% GLDA in component (B), day 6, 23° C.",1793 ppm
same,peracetic acid concentration of the aqueous disinfectant solution,"0.1 wt.-% GLDA in component (B), day 7, 23° C.",1682 ppm
same,peracetic acid concentration of the aqueous disinfectant solution,"0.1 wt.-% GLDA in component (B), day 8, 23° C.",1636 ppm
same,peracetic acid concentration of the aqueous disinfectant solution,"0.1 wt.-% GLDA in component (B), day 9, 23° C.",1566 ppm
same,peracetic acid concentration of the aqueous disinfectant solution,"0.1 wt.-% GLDA in component (B), day 15, 23° C.",1075 ppm
same,"stabilisation of peracetic acid, comparison of GLDA concentrations",0.1 wt.-% GLDA in the stabilizer component (B),best stabilisation
same,peracetic acid concentration of the aqueous disinfectant solution,"0.5 wt.-% GLDA in component (B), day 0, 23° C.",2408 ppm
same,peracetic acid concentration of the aqueous disinfectant solution,"0.5 wt.-% GLDA in component (B), day 1, 23° C.",2113 ppm
same,peracetic acid concentration of the aqueous disinfectant solution,"0.5 wt.-% GLDA in component (B), day 4, 23° C.",1821 ppm
same,peracetic acid concentration of the aqueous disinfectant solution,"0.5 wt.-% GLDA in component (B), day 6, 23° C.",1718 ppm
same,peracetic acid concentration of the aqueous disinfectant solution,"0.5 wt.-% GLDA in component (B), day 7, 23° C.",1682 ppm
same,peracetic acid concentration of the aqueous disinfectant solution,"0.5 wt.-% GLDA in component (B), day 8, 23° C.",1625 ppm
same,peracetic acid concentration of the aqueous disinfectant solution,"0.5 wt.-% GLDA in component (B), day 9, 23° C.",1512 ppm
same,peracetic acid concentration of the aqueous disinfectant solution,"0.5 wt.-% GLDA in component (B), day 15, 23° C.",1016 ppm
same,shelf life of the aqueous disinfectant use solution,"component (B) comprised 0.05 wt.-%, 0.1 wt.-% or 0.5 wt.-% GLDA",about 14 days
